Results published in patent US20060073172A1, “Stabilized ophthalmic solution for the treatment of glaucoma and lowering intraocular pressure” (priority 2004, published 2006).

Tests used:
5-HT2 receptors = conditions: cited from earlier work; for 5-HT2 receptor subtype selectivity: 5-HT2A, 5-HT2B, 5-HT2C
[1] = Stabilization of 1-(2-aminopropyl)-indazol-6-ol by classical antioxidants; assay type: physicochemical; conditions: aqueous solution

| Structure (SMILES) | 5-HT2 receptor subtype selectivity (5-HT2 receptors) | 5-HT2 agonist activity (5-HT2 receptors) | Stabilization by classical antioxidants (sodium metabisulfite, propyl gallate, ascorbic acid) [1] |
| --- | --- | --- | --- |
| COc1ccc2[nH]cc(CC(C)N)c2c1 (stereo not drawn) [5-methoxy-α-methyltryptamine] | profile similar to that of α-methyl-serotonin | – | – |
| COc1cc(C[C@@H](C)N)c(OC)cc1I [(R)-DOI, (R)4-iodo-2,5 dimethoxy-α-methyl-benzeneethanamine] | not selective amongst the 5-HT2 receptor subtypes | – | – |
| CC(N)Cc1c[nH]c2ccc(O)cc12 (stereo not drawn) [α-methyl-serotonin] | modest receptor subtype selectivity: 5-HT2B>5-HT2C>5-HT2A | potent 5-HT2 agonist | – |
| CC(N)Cn1ncc2ccc(O)cc21 (centres unmarked) [AL-34662, 1-(2-aminopropyl)-indazol-6-ol] | – | – | did not stabilize |
